Test results: US12037325B2, “1,2-diaminobenzimidazole derivative” (Carna Biosciences, Inc., priority 2021, dated 2024)
Where a name gives a salt, the structure may show the parent alone.

Key:
STING = biological target: T1, STING (Homo sapiens, UniProt Q86WV6, G230A/H232R/R293Q/R71H); test: Inhibition test of human IFN-β production by cGAMP stimulation in THP-1 cells; type: cell-based; settings: PMA-treated THP-1 cells, 2'3'-cGAMP transfection, 18 hours, ELISA of culture supernatant; read-out: Inhibitory effect on the IFN-β production
T1 construct: host or cells: THP-1 cells, PMA-treated
T1 sequence (Q86WV6 whole entry R71H/G230A/H232R/R293Q): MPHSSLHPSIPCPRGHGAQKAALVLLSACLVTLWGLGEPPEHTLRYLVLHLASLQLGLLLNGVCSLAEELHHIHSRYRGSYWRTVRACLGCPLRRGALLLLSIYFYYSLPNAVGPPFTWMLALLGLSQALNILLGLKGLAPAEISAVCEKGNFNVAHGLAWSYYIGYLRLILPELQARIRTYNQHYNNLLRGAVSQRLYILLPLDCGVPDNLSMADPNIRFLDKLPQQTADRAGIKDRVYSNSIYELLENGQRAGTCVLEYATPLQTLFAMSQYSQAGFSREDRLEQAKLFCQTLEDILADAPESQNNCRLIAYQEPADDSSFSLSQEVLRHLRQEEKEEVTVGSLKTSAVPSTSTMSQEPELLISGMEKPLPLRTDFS
Method: The human monocytic cell line THP-1 cells were used to measure the amount of IFN-β produced when stimulated with the endogenous ligand cGAMP, thereby evaluating the inhibitory activity of the test compounds on STING activation.
After THP-1 cells (manufactured by ATCC) were seeded in 96-well plates, PMA (manufactured by Santa Cruz Biotechnology, Inc.) adjusted to a concentration after addition of 100 nM was added and cultured overnight at a 37° C. in a 5% CO2 incubator (10% FBS, 50 U/mL penicillin/50 μg/mL streptomycin-containing RPMI 1640 medium). To each well of the plate, a test compound solution adjusted to a final concentration of 0.001-1 μM of the test compound was added and cultured in the CO2 incubator for 1 hour (DMSO final concentration of 0.1%). 0.12 μg/well of 2′3′-cGAMP (manufactured by ChemieTek, #CT-CGAMP) was introduced into the cells by transfection method using Lipofectamine 2000 (manufactured by Invitrogen) and cultured in the CO2 incubator for another 18 hours. After collecting the culture supernatant from each well, the amount of human IFN-P production in the culture supernatant was measured by ELISA method using R&D human IFN-β Duoset (manufactured by R&D systems).
(§1) Method for Evaluating Inhibitory Activity. Taking the amount of human IFN-β production in the group without test compounds added and with cGAMP added as 100% and the amount of human IFN-β production in the group without test compounds added and without cGAMP added as 0%, IC50 values were determined by regression analysis of the inhibition rate calculated from the amount of human IFN-β production at each compound concentration and the test compound concentration (logarithm).
Evaluation Result. […] The inhibitory effect on the IFN-β production was indicated by marking an IC50 value of less than 0.01 μM with ***, that of 0.01 μM or more and less than 0.1 μM with **, that of 0.1 μM or more and less than 1 μM with *, and that of 1 μM or more with “-”, and NT was marked as unmeasured.

hSTING = biological target: T2, hSTING (Homo sapiens, UniProt Q86WV6); test: Inhibition test of intracellular human STING (hSTING) pathways using reporter cells (HEK-Blue ISG, SEAP reporter); type: cell-based; settings: stimulation with Compound 3 (10 nM), 21 hours, read-out: Inhibitory Activity on hSTING
T2 construct: host or cells: HEK-Blue ISG cells (HEK293-derived SEAP reporter line)
T2 sequence (Q86WV6 whole entry H232R): as the sequence (Q86WV6 whole entry R71H/G230A/H232R/R293Q) above, with H71R, A230G, Q293R counted along it
Method: Since STING activates the transcription factor IRF3 by ligand stimulation, the activity of STING can be evaluated by a reporter assay using a secreted alkaline phosphatase (SEAP reporter) incorporated downstream of the IRF-inducible promoter. In other words, the hSTING inhibitory activity of the test compounds was evaluated using HEK-Blue™ ISG cells (manufactured by InvivoGen, #hkb-isg-1) into which the SEAP reporter was incorporated. The activation of hSTING was performed by stimulation with the small molecule ligand, Compound 3 as described in the literature (Ramanjulu, J. M., et al., Nature. 2018, 564 (7736), 439-443).
The HEK-Blue™ ISG cells were seeded in 96-well plates and cultured overnight at 37° C. in a 5% CO2 incubator. To each well of the cell culture plates, a test compound solution adjusted to have a final concentration of 0.1 to 10 μM was added and cultured in the CO2 incubator for 1 hour. Then, the Compound 3 (final concentration of 10 nM) was added thereto and further cultured in the CO2 incubator for 21 hours. After collecting the culture supernatant from each well, the reporter activity was measured by luminous reaction of alkaline phosphatase.
as §1, with “reporter activity” for “amount of human IFN-β production”, “Compound 3” for “cGAMP”
Evaluation Result. […] The inhibitory effect on the hSTING was indicated by marking an IC50 value of less than 0.1 μM with ***, that of 0.1 μM or more and less than 1 μM with **, that of 1 μM or more and less than 10 μM with *, and that of 10 μM or more with “-”.

SMILES | IC50 (STING) | IC50 (hSTING)
CNn1c(Nc2c[nH]c3ccc(Cl)nc23)nc2cc(C(F)(F)F)ccc21 [Example 26, N2-(5-chloro-1H-pyrrolo[3,2-b]pyridin-3-yl)-N1-methyl-5-(trifluoromethyl)-1H-benzo[d]imidazole-1,2-diamine hydrochloride] | 100 to 1000 nM | 1000 to 10000 nM
Nn1c(Nc2c[nH]c3ccc(F)cc23)nc2cc(C(F)(F)F)ccc21 [Example 28, N2-(5-fluoro-1H-indol-3-yl)-5-(trifluoromethyl)-1H-benzo[d]imidazole-1,2-diamine] | 10 to 100 nM | 100 to 1000 nM
CCNn1c(Nc2c[nH]c3ccc(F)cc23)nc2cc(C(F)(F)F)ccc21 [Example 29, N1-ethyl-N2-(5-fluoro-1H-indol-3-yl)-5-(trifluoromethyl)-1H-benzo[d]imidazole-1,2-diamine] | 10 to 100 nM | < 100 nM

Results, then the molecule that gave them:

IC50 (STING) | IC50 (hSTING) | SMILES
< 10 nM | < 100 nM | Cl.[2H]C([2H])([2H])Nn1c(Nc2c[nH]c3ccc(Cl)cc23)nc2cc(C(F)(F)F)ccc21 [Example 25, N2-(5-chloro-1H-indol-3-yl)-N1-(methyl-d3)-5-(trifluoromethyl)-1H-benzo[d]imidazole-1,2-diamine hydrochloride]
100 to 1000 nM | 100 to 1000 nM | CNn1c(Nc2c[nH]c3ncc(Cl)cc23)nc2cc(C(F)(F)F)ccc21 [Example 27, N2-(5-chloro-1H-pyrrolo[2,3-b]pyridin-3-yl)-N1-methyl-5-(trifluoromethyl)-1H-benzo[d]imidazole-1,2-diamine hydrochloride]
